Where two headings read alike, the source gives them in different places.
Columns and labels:
subcutaneous HL60 tumors = experiment: HL-60 human promyelocytic leukemia xenograft model; format: in vivo, athymic NCr-nu/nu mice
From the text: Five-week-old female athymic NCr-nu/nu mice were purchased from Harlan Sprague-Dawley (Prattville, AL). The animals were housed in microisolator cages, with up to five animals per cage in a 12-h light/dark cycle. The animals received filtered water and sterilized rodent diet (Harlan-Teklad TD8656) ad libitum. Each mouse was implanted subcutaneously near the right flank with ten million HL-60 cells using a 23-gauge needle and allowed to grow. Tumors were allowed to reach 75–144 mm^3 in size before treatment initiation. […] The %TGI values were calculated and statistical analyses performed as above.

SGK = target: T1, SGK (Homo sapiens, UniProt O00141); experiment: Carna kinase panel screen; format: biochemical; conditions: read-out: % Inhibition ± SD
T1 construct: purchased Carna Biosciences
Procedure: (§1) IC50 values were determined from a 10-point concentration curve using ATP concentrations approximating Km values. […] The percentage inhibition of each test solution was calculated, which allowed the IC50 value to be determined from concentration versus percentage inhibition curves by fitting to a four parameter logistic curve.

PKCb1 = target: T2, PKCb1 (Homo sapiens, UniProt P05771); experiment: Carna kinase panel screen; format: biochemical; conditions: read-out: % Inhibition ± SD
T2 construct: purchased Carna Biosciences
Procedure: as §1

CTK = target: T3, CTK (Homo sapiens, UniProt P42679); experiment: Carna kinase panel screen; format: biochemical; conditions: read-out: % Inhibition ± SD
T3 construct: purchased Carna Biosciences
Procedure: as §1

TEC = target: T4, TEC (Homo sapiens, UniProt P42680); experiment: Carna kinase panel screen; format: biochemical; conditions: read-out: % Inhibition ± SD
T4 construct: purchased Carna Biosciences
Procedure: as §1

CGK2 = target: T5, CGK2 (Homo sapiens, UniProt Q13237); experiment: Carna kinase panel screen; format: biochemical; conditions: read-out: % Inhibition ± SD
T5 construct: purchased Carna Biosciences
Procedure: as §1

FGFR3[K650M] = target: T6, FGFR3[K650M] (Homo sapiens, UniProt P22607, K650M); experiment: Carna kinase panel screen; format: biochemical; conditions: read-out: % Inhibition ± SD
T6 construct: purchased Carna Biosciences
Procedure: as §1

EphA4 = target: T7, EphA4 (Homo sapiens, UniProt P54764); experiment: Carna kinase panel screen; format: biochemical; conditions: read-out: % Inhibition ± SD
T7 construct: purchased Carna Biosciences
Procedure: as §1

EphB1 = target: T8, EphB1 (Homo sapiens, UniProt P54762); experiment: Carna kinase panel screen; format: biochemical; conditions: read-out: % Inhibition ± SD
T8 construct: purchased Carna Biosciences
Procedure: as §1

SYK = target: T9, SYK (Homo sapiens, UniProt P43405); experiment: Carna kinase panel screen; format: biochemical; conditions: read-out: % Inhibition ± SD
T9 construct: purchased Carna Biosciences
Procedure: as §1

KIT = target: T10, KIT (Homo sapiens, UniProt P10721); experiment: Carna kinase panel screen; format: biochemical; conditions: read-out: % Inhibition ± SD
T10 construct: purchased Carna Biosciences
Procedure: as §1

IRAK1 = target: T11, IRAK1 (Homo sapiens, UniProt P51617); experiment: Carna kinase panel screen; format: biochemical; conditions: read-out: % Inhibition ± SD
T11 construct: purchased Carna Biosciences
Procedure: as §1

HIPK1 = target: T12, HIPK1 (Homo sapiens, UniProt Q86Z02); experiment: Carna kinase panel screen; format: biochemical; conditions: read-out: % Inhibition ± SD
T12 construct: purchased Carna Biosciences
Procedure: as §1

MET = target: T13, MET (Homo sapiens, UniProt P08581); experiment: Carna kinase panel screen; format: biochemical; conditions: read-out: % Inhibition ± SD
T13 construct: purchased Carna Biosciences
Procedure: as §1

MSK2 = target: T14, MSK2 (Homo sapiens, UniProt O75676); experiment: Carna kinase panel screen; format: biochemical; conditions: read-out: % Inhibition ± SD
T14 construct: purchased Carna Biosciences
Procedure: as §1

TSSK1 = target: T15, TSSK1 (Homo sapiens, UniProt Q9BXA7); experiment: Carna kinase panel screen; format: biochemical; conditions: read-out: % Inhibition ± SD
T15 construct: purchased Carna Biosciences
Procedure: as §1

MAP3K4 = target: T16, MAP3K4 (Homo sapiens, UniProt Q9Y6R4); experiment: Carna kinase panel screen; format: biochemical; conditions: read-out: % Inhibition ± SD
T16 construct: purchased Carna Biosciences
Procedure: as §1

PKCb2 = target: T17, PKCb2 (Homo sapiens, UniProt P05771); experiment: Carna kinase panel screen; format: biochemical; conditions: read-out: % Inhibition ± SD
T17 construct: purchased Carna Biosciences
Procedure: as §1

Erk1 = target: T18, Erk1 (Homo sapiens, UniProt P27361); experiment: Carna kinase panel screen; format: biochemical; conditions: read-out: % Inhibition ± SD
T18 construct: purchased Carna Biosciences
Procedure: as §1

EOL-1 = experiment: Resazurin reduction cell viability assay; format: cell-based; conditions: Homo sapiens
Procedure: (§2) Solid tumor cell lines were seeded in 100 μl medium into 96-well plates at an appropriate cell number determined by a cell dilution assay (Cal51–2000 cells/well; Colo205, MCF10A and 184A1–3000 cells/well and MDA-MB-468, HCC1954–4000 cells/well). AML suspension cells were seeded in 96-well plates at approximately 3000 cells per well. Cells were incubated overnight at 37°C, 5% CO2. The following day, 100 μl fresh medium containing increasing concentrations of appropriate compound was added and the cells were incubated for up to 72 h at 37°C, 5% CO2. For pulse treatment of solid (adherent) tumor cell lines, medium was aspirated and replaced with fresh drug-free medium. For pulse treatment of suspension lines, plates were centrifuged at 478 xg for 5 min at the end of the incubation period with compound, medium containing compound was carefully aspirated and replaced with fresh compound-free medium. A total of 72 h after the start of treatment, 20 μl of a 10X stock of resazurin sodium salt (Sigma-Aldrich, Dorset, UK) prepared in medium was added to the cells and incubated for up to 3 h. […] was measured on the Wallac Victor plate reader (Cambridge, UK) at 544–595 nm. IC50/70/90 calculations were determined in XLFit.

ML-2 = experiment: Resazurin reduction cell viability assay; format: cell-based; conditions: Homo sapiens
Procedure: as §2

HCC1954 = experiment: Resazurin reduction cell viability assay; format: cell-based; conditions: Homo sapiens
Procedure: as §2

Kasumi-1 = experiment: Resazurin reduction cell viability assay; format: cell-based; conditions: Homo sapiens
Procedure: as §2

Nomo-1 = experiment: Resazurin reduction cell viability assay; format: cell-based; conditions: Homo sapiens
Procedure: as §2

Cal51 = experiment: Resazurin reduction cell viability assay; format: cell-based; conditions: Homo sapiens
Procedure: as §2

MDA-MB-468 = experiment: Resazurin reduction cell viability assay; format: cell-based; conditions: Homo sapiens
Procedure: as §2

HL60 = experiment: Resazurin reduction cell viability assay; format: cell-based; conditions: Homo sapiens
Procedure: as §2

[1] = 72 h continuous, read-out: 72 h continuous IC50 ± SD
[2] = read-out: 6 h pulse IC50 ± SD, 6 h pulse then 66 h release

T2 sequence (P05771 whole entry): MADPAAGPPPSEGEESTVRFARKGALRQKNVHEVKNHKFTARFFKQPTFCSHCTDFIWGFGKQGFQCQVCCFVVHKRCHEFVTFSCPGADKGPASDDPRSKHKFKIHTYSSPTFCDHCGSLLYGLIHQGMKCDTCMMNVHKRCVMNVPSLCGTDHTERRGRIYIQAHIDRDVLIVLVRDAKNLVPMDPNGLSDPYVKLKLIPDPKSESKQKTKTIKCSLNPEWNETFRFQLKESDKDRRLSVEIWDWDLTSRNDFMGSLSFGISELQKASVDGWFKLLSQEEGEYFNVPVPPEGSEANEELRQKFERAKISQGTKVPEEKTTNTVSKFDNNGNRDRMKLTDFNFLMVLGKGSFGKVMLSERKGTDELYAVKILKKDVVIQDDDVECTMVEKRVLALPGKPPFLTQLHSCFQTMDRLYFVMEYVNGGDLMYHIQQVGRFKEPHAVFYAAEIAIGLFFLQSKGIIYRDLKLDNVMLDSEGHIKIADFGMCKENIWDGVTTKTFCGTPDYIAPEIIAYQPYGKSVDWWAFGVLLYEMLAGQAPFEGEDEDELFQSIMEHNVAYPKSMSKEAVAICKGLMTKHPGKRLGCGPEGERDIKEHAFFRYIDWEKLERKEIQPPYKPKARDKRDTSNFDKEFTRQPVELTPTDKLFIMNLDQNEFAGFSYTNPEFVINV
T7 sequence (P54764 20-986): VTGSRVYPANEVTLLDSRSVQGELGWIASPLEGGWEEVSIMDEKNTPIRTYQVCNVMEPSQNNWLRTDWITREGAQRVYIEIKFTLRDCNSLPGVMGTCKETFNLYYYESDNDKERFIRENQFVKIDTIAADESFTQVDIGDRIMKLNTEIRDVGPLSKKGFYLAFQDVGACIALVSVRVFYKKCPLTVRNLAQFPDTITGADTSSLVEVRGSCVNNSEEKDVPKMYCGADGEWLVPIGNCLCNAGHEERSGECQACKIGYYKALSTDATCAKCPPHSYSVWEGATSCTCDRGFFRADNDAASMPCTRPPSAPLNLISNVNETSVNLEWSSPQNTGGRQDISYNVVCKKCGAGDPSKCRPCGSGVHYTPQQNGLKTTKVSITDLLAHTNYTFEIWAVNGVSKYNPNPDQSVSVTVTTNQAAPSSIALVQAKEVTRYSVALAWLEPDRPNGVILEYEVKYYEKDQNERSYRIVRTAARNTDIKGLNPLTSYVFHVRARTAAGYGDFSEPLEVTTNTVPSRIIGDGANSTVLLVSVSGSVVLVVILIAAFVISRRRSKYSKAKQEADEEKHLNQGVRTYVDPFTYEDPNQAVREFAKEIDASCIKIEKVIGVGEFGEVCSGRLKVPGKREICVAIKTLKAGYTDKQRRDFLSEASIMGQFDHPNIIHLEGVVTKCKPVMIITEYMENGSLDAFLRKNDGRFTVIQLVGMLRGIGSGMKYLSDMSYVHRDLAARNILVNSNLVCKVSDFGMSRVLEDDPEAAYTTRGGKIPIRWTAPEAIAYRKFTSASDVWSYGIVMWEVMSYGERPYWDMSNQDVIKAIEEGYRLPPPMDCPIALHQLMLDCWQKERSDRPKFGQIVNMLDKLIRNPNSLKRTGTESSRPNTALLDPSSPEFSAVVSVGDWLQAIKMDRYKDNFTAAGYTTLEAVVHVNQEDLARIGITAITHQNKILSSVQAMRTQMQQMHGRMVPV
T11 sequence (P51617 whole entry): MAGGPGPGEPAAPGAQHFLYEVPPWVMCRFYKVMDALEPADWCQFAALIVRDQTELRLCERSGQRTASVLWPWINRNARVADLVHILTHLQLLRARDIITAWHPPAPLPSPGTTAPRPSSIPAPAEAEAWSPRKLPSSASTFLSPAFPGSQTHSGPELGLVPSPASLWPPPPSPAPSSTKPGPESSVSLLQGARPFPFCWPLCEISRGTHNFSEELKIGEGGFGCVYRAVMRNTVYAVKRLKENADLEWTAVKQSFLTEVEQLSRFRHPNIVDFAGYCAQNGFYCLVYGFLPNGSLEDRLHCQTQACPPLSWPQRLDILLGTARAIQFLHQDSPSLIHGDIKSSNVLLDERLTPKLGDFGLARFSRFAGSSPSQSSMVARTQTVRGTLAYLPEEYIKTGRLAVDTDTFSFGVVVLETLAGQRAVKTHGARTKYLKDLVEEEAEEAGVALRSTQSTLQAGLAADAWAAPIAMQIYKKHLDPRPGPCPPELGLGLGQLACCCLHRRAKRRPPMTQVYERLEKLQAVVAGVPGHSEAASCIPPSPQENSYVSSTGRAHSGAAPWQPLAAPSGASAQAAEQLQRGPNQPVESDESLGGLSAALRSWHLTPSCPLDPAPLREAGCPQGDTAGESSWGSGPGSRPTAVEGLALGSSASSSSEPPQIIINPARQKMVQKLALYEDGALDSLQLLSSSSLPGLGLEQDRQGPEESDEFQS
T12 sequence (Q86Z02 whole entry): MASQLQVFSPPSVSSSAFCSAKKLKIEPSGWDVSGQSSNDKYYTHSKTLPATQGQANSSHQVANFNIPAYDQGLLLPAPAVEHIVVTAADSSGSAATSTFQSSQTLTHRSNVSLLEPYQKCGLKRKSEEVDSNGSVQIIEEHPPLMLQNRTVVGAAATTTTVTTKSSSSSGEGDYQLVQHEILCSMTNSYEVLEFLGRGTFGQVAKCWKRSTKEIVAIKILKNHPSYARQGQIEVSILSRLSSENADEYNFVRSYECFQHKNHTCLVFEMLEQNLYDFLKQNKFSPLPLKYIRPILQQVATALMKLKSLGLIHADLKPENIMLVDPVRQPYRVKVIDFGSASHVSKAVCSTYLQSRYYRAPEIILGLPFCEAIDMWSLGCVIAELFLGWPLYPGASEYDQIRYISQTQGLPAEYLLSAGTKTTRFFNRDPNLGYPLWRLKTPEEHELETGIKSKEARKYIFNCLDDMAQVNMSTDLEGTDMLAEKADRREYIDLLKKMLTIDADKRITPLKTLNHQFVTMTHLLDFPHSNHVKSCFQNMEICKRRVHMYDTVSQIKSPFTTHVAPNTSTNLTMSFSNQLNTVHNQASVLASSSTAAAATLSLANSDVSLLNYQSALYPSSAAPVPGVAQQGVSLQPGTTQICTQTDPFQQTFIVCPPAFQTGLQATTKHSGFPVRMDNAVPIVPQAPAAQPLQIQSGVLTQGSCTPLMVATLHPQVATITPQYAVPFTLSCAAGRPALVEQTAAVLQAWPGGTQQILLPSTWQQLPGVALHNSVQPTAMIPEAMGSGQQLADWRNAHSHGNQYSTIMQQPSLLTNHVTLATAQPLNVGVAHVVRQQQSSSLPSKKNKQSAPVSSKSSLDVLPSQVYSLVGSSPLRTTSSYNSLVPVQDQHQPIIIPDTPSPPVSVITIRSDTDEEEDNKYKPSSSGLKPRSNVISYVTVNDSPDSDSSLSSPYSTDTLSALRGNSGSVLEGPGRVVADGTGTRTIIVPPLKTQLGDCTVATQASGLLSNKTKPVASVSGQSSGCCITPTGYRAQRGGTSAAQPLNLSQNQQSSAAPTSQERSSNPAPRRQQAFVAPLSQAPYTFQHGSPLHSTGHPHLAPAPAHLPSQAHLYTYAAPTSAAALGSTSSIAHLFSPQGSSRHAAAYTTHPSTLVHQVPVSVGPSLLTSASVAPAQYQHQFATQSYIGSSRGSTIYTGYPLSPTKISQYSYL
T14 sequence (O75676 whole entry): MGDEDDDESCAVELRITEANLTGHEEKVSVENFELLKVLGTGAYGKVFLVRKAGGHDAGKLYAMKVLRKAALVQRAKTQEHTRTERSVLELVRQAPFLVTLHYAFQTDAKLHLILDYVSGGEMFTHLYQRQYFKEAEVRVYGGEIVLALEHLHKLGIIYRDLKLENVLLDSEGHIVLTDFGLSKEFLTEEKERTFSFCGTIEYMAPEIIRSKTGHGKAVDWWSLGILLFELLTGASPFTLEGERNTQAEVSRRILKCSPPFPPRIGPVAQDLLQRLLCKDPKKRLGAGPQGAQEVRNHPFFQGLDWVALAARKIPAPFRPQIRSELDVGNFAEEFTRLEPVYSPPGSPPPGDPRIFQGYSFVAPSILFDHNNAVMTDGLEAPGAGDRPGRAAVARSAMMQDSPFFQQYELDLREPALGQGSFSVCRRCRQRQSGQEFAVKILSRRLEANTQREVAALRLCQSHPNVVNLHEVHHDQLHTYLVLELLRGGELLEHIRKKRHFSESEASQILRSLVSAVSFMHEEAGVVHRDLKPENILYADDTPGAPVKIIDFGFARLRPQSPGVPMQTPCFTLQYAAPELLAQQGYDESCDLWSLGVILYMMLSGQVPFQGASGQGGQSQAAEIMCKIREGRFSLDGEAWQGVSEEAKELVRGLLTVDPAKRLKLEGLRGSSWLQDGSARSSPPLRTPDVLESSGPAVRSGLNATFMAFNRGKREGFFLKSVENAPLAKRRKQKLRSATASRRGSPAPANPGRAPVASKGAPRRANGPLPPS
T15 sequence (Q9BXA7 whole entry): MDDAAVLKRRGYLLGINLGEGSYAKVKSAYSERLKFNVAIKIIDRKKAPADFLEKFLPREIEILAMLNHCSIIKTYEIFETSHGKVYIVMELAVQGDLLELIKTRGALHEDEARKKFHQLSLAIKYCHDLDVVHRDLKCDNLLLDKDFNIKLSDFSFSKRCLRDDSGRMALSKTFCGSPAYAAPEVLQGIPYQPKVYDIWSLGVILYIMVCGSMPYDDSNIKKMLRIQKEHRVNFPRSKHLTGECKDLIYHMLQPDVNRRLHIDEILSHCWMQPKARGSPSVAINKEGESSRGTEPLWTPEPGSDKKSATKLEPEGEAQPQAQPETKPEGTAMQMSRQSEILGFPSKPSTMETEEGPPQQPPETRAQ
T18 sequence (P27361 whole entry): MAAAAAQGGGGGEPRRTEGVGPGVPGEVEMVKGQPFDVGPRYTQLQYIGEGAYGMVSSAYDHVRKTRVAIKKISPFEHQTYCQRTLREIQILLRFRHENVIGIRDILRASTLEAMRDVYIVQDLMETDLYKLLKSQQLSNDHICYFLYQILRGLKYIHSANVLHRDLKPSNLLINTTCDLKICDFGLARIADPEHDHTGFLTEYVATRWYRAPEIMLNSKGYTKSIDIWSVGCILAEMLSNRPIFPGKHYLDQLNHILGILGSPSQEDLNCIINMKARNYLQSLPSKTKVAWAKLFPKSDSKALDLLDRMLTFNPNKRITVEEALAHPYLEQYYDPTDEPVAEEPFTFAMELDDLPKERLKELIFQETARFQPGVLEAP

CC[C@H](Nc1nc(NCc2cnc(C)cc2C)c2ncn(C(C)C)c2n1)[C@@H](C)O [Fadraciclib, 2-pentanol, 3-[[6-[[(4,6-dimethyl-3-pyridinyl)methyl]amino]-9-(1-methylethyl)-9Hpurin-2-yl]amino]-, (2R,3S)]
mean body weight loss (subcutaneous HL60 tumors; 70 mg/kg oral (highest dose)): 8%
tumor growth delay T-C (subcutaneous HL60 tumors; 70 mg/kg oral, 5 days on/2 days off, 2 cycles): > 12.6 days
TGI (subcutaneous HL60 tumors; 70 mg/kg oral, Day 11): 90%
tumor regression (subcutaneous HL60 tumors; 70 mg/kg oral, groups of 10 animals): Two animals achieved tumor regression and one was determined to be tumor-free
inhibition at 1 µM (SGK): -0.8%
inhibition at 1 µM (PKCb1): -1.9%
inhibition at 1 µM (CTK): 3.4 ± 0.2%
inhibition at 1 µM (TEC): -14.9%
inhibition at 1 µM (CGK2): -12.6 ± 0.5%
inhibition at 1 µM (FGFR3[K650M]): 3.2 ± 0.1%
inhibition at 1 µM (EphA4): 1%
inhibition at 1 µM (EphB1): 3.9 ± 0.1%
inhibition at 1 µM (SYK): 2.2 ± 0.1%
inhibition at 1 µM (KIT): -2.4 ± 0.1%
inhibition at 1 µM (IRAK1): 1.6 ± 0.1%
inhibition at 1 µM (HIPK1): 6.8 ± 0.3%
inhibition at 1 µM (MET): -8.3 ± 0.1%
inhibition at 1 µM (MSK2): -3.7%
inhibition at 1 µM (TSSK1): 16 ± 0.5%
inhibition at 1 µM (MAP3K4): 7.6 ± 0.1%
inhibition at 1 µM (PKCb2): -14.3 ± 0.1%
inhibition at 1 µM (Erk1): -6.5%
IC90 (EOL-1; EOL1, 6 h pulse then 66 h release): 560 nM
IC50 (EOL-1; EOL1, 72 h continuous, read-out: 72 h continuous IC50 ± SD): 370 ± 50 nM
IC50 (EOL-1; EOL1, read-out: 6 h pulse IC50 ± SD, 6 h pulse then 66 h release): 350 ± 50 nM
IC90 (ML-2; 6 h pulse then 66 h release): 590 nM
IC50 (ML-2; [1]): 190 ± 50 nM
IC50 (ML-2; [2]): 330 ± 120 nM
IC50 (HCC1954; read-out: 8 h pulse IC50 ± SD, HCC1954 (HER2 amplified), 8 h pulse, read at 72 h): 480 ± 50 nM
IC50 (HCC1954; HCC1954, continuous 72 h, read-out: continuous IC50 ± SD): 400 ± 30 nM
IC90 (Kasumi-1; 6 h pulse then 66 h release): 570 nM
IC50 (Kasumi-1; [1]): 230 ± 40 nM
IC50 (Kasumi-1; [2]): 320 ± 50 nM
IC90 (Nomo-1; 6 h pulse then 66 h release): 1800 nM
IC50 (Nomo-1; [1]): 290 ± 50 nM
IC50 (Nomo-1; [2]): 660 ± 110 nM
IC50 (Cal51; CAL-51, read-out: 8 h pulse IC50 ± SD, Cal51 (TNBC), 8 h pulse, read at 72 h): 680 ± 200 nM
IC50 (Cal51; CAL-51, Cal51, continuous 72 h, read-out: continuous IC50 ± SD): 230 ± 40 nM
IC50 (MDA-MB-468; read-out: 8 h pulse IC50 ± SD, MDA-MB-468 (TNBC), 8 h pulse, read at 72 h): 990 ± 340 nM
IC50 (MDA-MB-468; MDA-MB-468, continuous 72 h, read-out: continuous IC50 ± SD): 380 ± 170 nM
IC90 (HL60; HL-60, 6 h pulse then 66 h release): 1600 nM
IC50 (HL60; HL-60, 72 h continuous, read-out: 72 h continuous IC50 ± SD): 440 ± 70 nM
IC50 (HL60; HL-60, read-out: 6 h pulse IC50 ± SD, 6 h pulse then 66 h release): 790 ± 140 nM
